Values after ≈ are worked out from the molar mass of the structure shown.
What was measured:
Type in all cases: cell-based
[1] = system: Escherichia coli ATCC-25922; assay: MIC in the presence of normal human serum (50% NHS); conditions: ATCC25922; Escherichia coli ATCC-25922, 50% NHS, Table 6; read-out: MIC
Text: As used herein, the term “MIC” refers to minimum inhibitory concentrations. Minimum inhibitory concentrations may be determined by broth microdilution according to the Clinical and Laboratory Standards Institute guidelines (see, e.g., […]-A8. Methods for dilution antimicrobial susceptibility tests for bacteria that grow aerobically: approved standard, 8th Ed.; […] One example for measuring minimum inhibitory concentrations may be found in Reck et al., 2012, J. Med. Chem. 55:6916-6933, the disclosure of which is incorporated by reference. Inoculants may be incubated on blood agar plates for 18 to 24 hours. Incubation may occur at a temperature from about 35° C. to about 37° C. […] In serum supplemented experiments, the testing medium (e.g., DMSO solution) and human serum may be mixed. The ratio of testing medium to human serum may be 1:1 (vol:vol). Plates may be read by spectrophotometry at 620 nm. Unless indicated otherwise, all inhibitory concentrations recited in the specification relate to MICs. The MIC tests were based on broth microdilution method in CLSI-M7. […] Solutions of varying concentrations of DMSO were prepared in wells of a v-bottom 96-well plate (Axygen-WIPP02280). A multi-pipette was used to perform serial dilutions as necessary. From well to well, the drug concentrations were 6.4, 3.2, 1.6, 0.8, 0.4, 0.2, 0.1, 0.05, 0.025, 0.0125, 0.00625 and 0 mg/ml in DMSO. For extremely potent antibiotic, the starting concentrations were adjusted accordingly. This was the drug mother plate. Daughter plates were prepared by placing 98 μl of a testing medium into each well of a u-bottom 96-well plate (Costar 3788). An aliquot of each 2 μl solution from each well of the mother plate was then transferred into the corresponding wells of the daughter plate using a multi-pipette work station (CyBi®-SELMA). Testing media were selected based on CLSI-M7, M11 and […]. Cation adjusted Mueller Hinton Broth (CA-MHB-212322) was the testing medium for majority of bacterial species. Brucella medium (BD-211088) supplemented with 5% LHB, 0.5% hemin and 0.1% vitamin K1 (Sigma-95271) was the testing medium for anaerobic bacteria. One day prior to the day of MIC test, bacterial strains were streaked out from -80° C. glycerol stock onto Trypticase Soy Agar (TSA) plates (Brucella blood agar for anaerobic bacteria) and incubated at 37° C. for 20 hours (in anaerobic condition for anaerobic bacteria, e.g., 80% N2, 10% H2 and 10% CO2). Single colonies of bacteria were picked by using an inoculation loop (Greiner-731175) and suspended into 5 ml sterile saline. The turbidity of the suspension was adjusted to 0.10 (Siemens MicroS can turbidity meter), which implies a concentration of colony forming units (“CFU”) of approximately 1.0×10^8 CFU/ml. The bacterial suspension was diluted 100× in testing media. For MIC experiments with NHS, testing medium and human serum (Equitech Bio Inc. BRH-949908) were mixed in the ratio of 1:1. This was used for inoculation of the daughter plates. An aliquot of 100 μl of the bacterial suspension was inoculated into each well of the daughter plates using a multi-pipette. […] The plates were incubated in ambient atmosphere and at 37° C. in an incubator for 20 hours (for anaerobic bacteria in an anaerobic condition as described above for 48 hours). The MIC values were determined and based on the standards of CLSI methods M7-A7, broth microdilution method. […] Test compounds were compared to control antibiotics Penicillin G (Sigma-13752) and levofloxacin (Sigma-28266). […] Additionally, the MIC's of another gyrase inhibitor (“GSK”) with a structure different from the inventive compounds and the antibacterial levofloxin was measured. MIC are given in μg/mL.

[2] = system: Klebsiella pneumonia ATCC-43816; assay: MIC (50% NHS); conditions: Klebsiella pneumoniae, ATCC43816; Klebsiella pneumonia ATCC-43816, 50% NHS
[3] = system: Klebsiella pneumonia ATCC-700603; assay: MIC (50% NHS); conditions: Klebsiella pneumoniae, ATCC700603; Klebsiella pneumonia ATCC-700603, 50% NHS
[4] = system: Escherichia coli CCUG-59353; assay: MIC (50% NHS); conditions: CCUG59353; Escherichia coli CCUG-59353, 50% NHS
[5] = system: Escherichia coli NCTC-13476; assay: MIC (50% NHS); conditions: NCTC13476; Escherichia coli NCTC-13476, 50% NHS
[6] = system: Escherichia coli ATCC-BAA-2340; assay: MIC (50% NHS); conditions: ATCCBAA2340; Escherichia coli ATCC-BAA-2340, 50% NHS
[7] = system: Acinetobacter baumannii ATCC 17978; assay: MIC (50% NHS); conditions: ATCC17978; Acinetobacter baumannii ATCC 17978, 50% NHS
[8] = system: Pseudomonas aeruginosa ATCC-BAA-47 (PAO1); assay: MIC (50% NHS)
[9] = system: Enterobacter aerogenes ATCC-13048; assay: MIC (50% NHS); conditions: Klebsiella aerogenes, ATCC13048; Enterobacter aerogenes ATCC-13048, 50% NHS
[10] = system: Enterobacter cloacae ATCC-222; assay: MIC (50% NHS); conditions: ATCC222; Enterobacter cloacae ATCC-222, 50% NHS
[11] = system: Enterobacter cloacae ATCC-BAA-1143; assay: MIC (50% NHS); conditions: ATCCBAA1143; Enterobacter cloacae ATCC-BAA-1143, 50% NHS
[12] = system: Citrobacter werkmanii Brenner ATCC-51114; assay: MIC (50% NHS); conditions: ATCC51114; Citrobacter werkmanii Brenner ATCC-51114, 50% NHS
[13] = system: Serratia marcescens Bizio ATCC-29021; assay: MIC (50% NHS); conditions: ATCC29021; Serratia marcescens Bizio ATCC-29021, 50% NHS
[14] = system: Proteus mirabilis ATCC-29906; assay: MIC (50% NHS); conditions: ATCC29906; Proteus mirabilis ATCC-29906, 50% NHS
[15] = system: Enterococcus faecalis ATCC-29212; assay: MIC (50% NHS); conditions: ATCC29212; Enterococcus faecalis ATCC-29212, 50% NHS
[16] = system: Enterococcus faecium ATCC-700221; assay: MIC (50% NHS); conditions: ATCC700221; Enterococcus faecium ATCC-700221, 50% NHS
[17] = system: Staphylococcus aureus ATCC-29213; assay: MIC (50% NHS); conditions: ATCC29213; Staphylococcus aureus ATCC-29213, 50% NHS
[18] = system: Staphylococcus aureus NRS-384; assay: MIC (50% NHS); conditions: NRS384; Staphylococcus aureus NRS-384, 50% NHS
[19] = system: Staphylococcus aureus NRS-100; assay: MIC (50% NHS); conditions: NRS100; Staphylococcus aureus NRS-100, 50% NHS
[20] = system: Staphylococcus aureus WX1-009; assay: MIC (50% NHS); conditions: WX1009; Staphylococcus aureus WX1-009, 50% NHS

MIC [2]: 0.13 µg/mL (≈ 0.36 µM)
MIC [3]: 0.5 µg/mL (≈ 1.38 µM)
MIC [4]: > 2 µg/mL
MIC [5]: > 2 µg/mL
MIC [6]: > 2 µg/mL
MIC [7]: 1 µg/mL (≈ 2.77 µM)
MIC [8]: 1 µg/mL (≈ 2.77 µM)
MIC [9]: 0.13 µg/mL (≈ 0.36 µM)
MIC [10]: 0.06 µg/mL (≈ 0.166 µM)
MIC [11]: 0.06 µg/mL (≈ 0.166 µM)
MIC [12]: 0.25 µg/mL (≈ 0.692 µM)
MIC [13]: 0.13 µg/mL (≈ 0.36 µM)
MIC [14]: 0.25 µg/mL (≈ 0.692 µM)
MIC [15]: 2 µg/mL (≈ 5.53 µM)
MIC [16]: > 2 µg/mL
MIC [17]: 0.5 µg/mL (≈ 1.38 µM)
MIC [18]: 1 µg/mL (≈ 2.77 µM)
MIC [19]: 0.5 µg/mL (≈ 1.38 µM)
MIC [20]: > 2 µg/mL
SMILES: C[C@H]1COc2c(N3CCN(C)CC3)c(F)cc3c(=O)c(C(=O)O)cn1c23 [Levofloxin, reference compound]
MIC [1]: 0.031 µg/mL

Source: US10654852B2, “Antibiotics and methods of using same” (THE BROAD INSTITUTE, INC., priority 2016, dated 2020)
